Key:
[1] = test system: JIMT-1 cells; experiment: Cellular ATP content (CellTiter-Glo), JIMT-1; format: cell-based, human; conditions: JIMT-1, 6 h; curcumin 0–100 µM, MGO 0–1000 µM
Experimental: (§1) Cellular ATP content was determined using the CellTiter-Glo® Luminescent Cell Viability Assay. Data represent the mean±S.D. of independent experiments (n = 12).
(§2) Cell ATP content was determined by means of the CellTiter-Glo® Luminescent Cell Viability Assay according to the manufacturer's instructions (Promega, Madison, USA). […] After 6-h incubation, cells were mixed with test reagents and luminescence was read according to the manufacturer's instructions. A standard curve was prepared from ATP (1 µM to 10 nM) in medium.

[2] = test system: brain astrocytoma 1321N1 cells; experiment: Cell proliferation WST-1 assay, 1321N1; format: cell-based; conditions: 1321N1, 24 h; for anti-proliferative effect compared to curcumin: WST-1
Experimental: (§3) Figure 3 Growth inhibition of different tumor cell lines by polyphenols. […] Following 24-h incubation, cell proliferation was evaluated using the WST-1 assay.
(§4) Tumor cells were cultured in RPMI medium containing 10% fetal calf serum (RPMI-FCS) (PC-3, JIMT-1, MDA-MD 231) or in DMEM-FCS (astrocytoma 1321N1 cells) containing penicillin/streptomycin (100 U penicillin/ml; 100 µg streptomycin/ml) at 37°C/5% CO2. Cytosolic protein extracts of tumor cells were prepared using extraction buffer composed of 25 mM Tris, 2 mM EDTA, 10% Glycerol, 1% Triton ×100, 2 mM DTT, 1mM PMSF, pH. 7.0 containing 0.3% protease inhibitor cocktail. Protein content was determined according to Bradford. Specific activity of enzymes analyzed in cell extracts was expressed as U/mg protein.
(§5) Cell proliferation/vitality of tumor cells (96-well plates; 5000 cells/well) and primary human hepatocytes (24-well plates; 0.25×10^6 cells/well) was assayed using the WST-1 assay according to manufacturer's instructions. Trypan blue exclusion was performed by staining cells with 0.4% aqueous trypan blue solution according to the manufacturer's instructions.

[3] = test system: breast cancer JIMT-1 cells; experiment: Cell proliferation WST-1 assay, JIMT-1; format: cell-based, human; conditions: JIMT-1, 24 h, WST-1, increasing concentrations
Experimental: as §3, §4, §5

[4] = test system: astrocytoma 1321N1 cells; experiment: Cellular ATP content (CellTiter-Glo), 1321N1; format: cell-based; conditions: 1321N1, 6 h; curcumin 0–100 µM, MGO 0–1000 µM
Experimental: as §1, §2

[5] = biological target: T1, glyoxalase 1 (Glo1) (Homo sapiens, UniProt Q04760); experiment: Inhibition of purified glyoxalase 1 activity (Dixon plot); format: biochemical; conditions: purified Glo1 70 mU, substrates MGO and GSH, Dixon plot
T1 construct: Glo1 was purified from human erythrocytes as described earlier; from tissue; host or cells: human erythrocytes
T1 sequence (Q04760 2-184 limits assumed): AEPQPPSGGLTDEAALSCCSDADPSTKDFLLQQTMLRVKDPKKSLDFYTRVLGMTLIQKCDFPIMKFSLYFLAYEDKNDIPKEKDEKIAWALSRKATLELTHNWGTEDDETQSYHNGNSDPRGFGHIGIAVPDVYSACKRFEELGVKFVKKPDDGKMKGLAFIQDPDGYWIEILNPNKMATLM
Experimental: Purified Glo1 (70 mU) was incubated with increasing concentrations of different polyphenols at three substrate concentrations; and enzyme activity was recorded (n = 3). The inhibitor concentration was plotted vs. the reciprocal of enzyme activity (1/v) in Dixon plots.
Glo1 was purified from human erythrocytes as described earlier. Briefly, erythrocytes were treated with butanol/chloroform to denature hemoglobin followed by acetone and ammonium sulphate fractionation.
The determination of Glo1 (E.C.4.4.1.5) activity has been described previously. […] The inhibition constant, Ki value of the inhibitors was evaluated by Dixon plot showing the reciprocal of enzyme velocity against the inhibitor concentration at variable concentrations of the substrate. Human Glo2 (E.C.3.1.2.6) was measured using the substrate S-lactoylglutathione as described earlier.
A goodness-of-fit criterion (Akaike's information criterion, AIC) was used for falsification of incompatible inhibition models. […] Spearman's rank correlation test was applied to evaluate the correlation between the IC50 values of pro-inflammatory cytokine release and the Ki-values of various polyphenols. Data were presented as means±S.D. of at least three independent experiments. […] In all other tests, significance has been considered at values of p<0.05.

[6] = test system: IL-1β release from LPS-stimulated blood cells; experiment: Whole blood assay, LPS-induced IL-1β release (cytometric bead array); format: cell-based; conditions: Homo sapiens; heparinized whole blood, LPS 10 ng/ml, 6 h, 37°C
Experimental: Figure 2 Effect of polyphenols on IL-1β release from LPS-stimulated blood cells. Heparinized whole blood was stimulated by LPS in the absence or presence of polyphenols at increasing concentrations and incubated for 6 h at 37°C with 5% CO2. (A) Released IL-1β as measured in cell supernatants. Samples without additives but LPS were set at 100%. (B) The calculated […] values of the respective polyphenols. Data represent mean±S.D. of independent experiments (n = 6).
Whole blood assay was performed as previously described. Accordingly, LPS (10 ng/ml), test substances and 200 µl heparinized human blood of healthy donors, obtained from the blood bank of the University of Leipzig, were co-incubated with serum-free medium (RPMI-SF, 1 ml final volume) in 24-well culture plates for 6 h at 37°C with 5% CO2. Samples were removed, centrifuged at 2000×g for 10 min and supernatants were stored at −20°C until assaying for inflammatory cytokines.
Assessment of cytokine levels in supernatants of human blood cell cultures was accomplished using Cytometric Bead Array (CBA™, BD Biosciences, San Jose, U.S.A). The procedure was carried out according to the manufacturer's instruction. Fluorescence measurement and analysis were performed using a FACSCalibur and the CellQuest software (BD Biosciences).

| Ki [5] | IC50 [6] | SMILES | anti-proliferative effect compared to curcumin [2] | further results |
| --- | --- | --- | --- | --- |
|  |  | CC(=O)C=O [MGO, methylglyoxal, reference compound] |  | cellular ATP content [1]: comparable effects; effect on cell proliferation ([2]; WST-1, increasing concentrations): anti-proliferative properties; effect on cell proliferation [3]: anti-proliferative properties; cellular ATP content [4]: comparable effects |
| 21 ± 3.8 µM | 34.6 µM | O=c1c(O)c(-c2ccc(O)cc2)oc2cc(O)cc(O)c12 [kaempferol] |  |  |
| 35 ± 6.3 µM | 68 µM | O=c1cc(-c2ccc(O)c(O)c2)oc2cc(O)cc(O)c12 [luteolin] |  |  |
|  |  | O=c1c(O)c(-c2cc(O)c(O)c(O)c2)oc2cc(O)cc(O)c12 [myricetin] | less anti-proliferative |  |
|  | 20 µM | O=c1c(O)c(-c2ccc(O)c(O)c2)oc2cc(O)cc(O)c12 [quercetin] | less anti-proliferative |  |

| SMILES | Ki [5] | IC50 [6] | anti-proliferative effect compared to curcumin [2] | further results |
| --- | --- | --- | --- | --- |
| C[C@@H]1O[C@@H](OC[C@H]2O[C@@H](Oc3c(-c4ccc(O)c(O)c4)oc4cc(O)cc(O)c4c3=O)[C@H](O)[C@@H](O)[C@@H]2O)[C@H](O)[C@H](O)[C@H]1O [rutin] | 140 ± 15 µM |  |  |  |

Source: publication PMC2567432 (PLoS ONE, 2008)
